Test results reported in patent US11872219B2 (priority 2018, dated 2024).

Assays:
[1] = system: rats (monosodium-iodoacetate model of osteoarthritis); assay: monosodium-iodoacetate model of osteoarthritis: lameness (dynamic weight bearing); settings: for lameness (% RL-% RR), early and late phase: intrathecal, 1 hr post-drug, vs intrathecal saline
[2] = system: rats (acute thermal nociception); assay: tail flick assay, intrathecal administration; type: in vivo, rat; settings: intrathecal 0.1, 1 or 10 μg on successive days, 1 hr post-drug, vs baseline and saline
Experimental: As a general matter, rats underwent implantation of a catheter for drug delivery into the lumbo-thoracic intrathecal space. A polyurethane catheter was inserted through an incision in the atlanto-occipital membrane and passed caudally to the lumbar level. The distal part of the catheter was exteriorized and connected to a Pinport access port (Instech). Each rat received a standard protocol of anesthesia and antibiotics. Patency checks of the catheter system were performed once weekly following surgeries using 0.02 mL of physiological saline continuing until completion of the dosing period. The Pinport was wiped with alcohol prior to any injection. A minimum of 9-10 days was allowed between surgery and the first dosing in order for the rats to recover fully from surgical trauma. Intrathecal injection of test items always involved the following procedure: test items were administered by slow bolus injection via the Pinport connected to the intrathecal catheter. The dose volume for each animal was fixed at 10 μL and injected slowly over duration of ˜5 minutes. Following dose administration, the catheter was flushed with 20 μL of physiological saline.
A Tail-Flick Analgesia Meter (Columbus Instruments) was used. […] Afterwards, baseline tail-flick latency was measured using a lamp intensity adjusted such that the baseline tail-flick latencies were in the 6-8 second range. […]

[3] = system: rats (monosodium-iodoacetate model of osteoarthritis); assay: monosodium-iodoacetate model of osteoarthritis: locomotor activity (total distance travelled)
[4] = biological target: human delta receptor (Homo sapiens, UniProt P41143); settings: Ferrari et al. 2017; cited from earlier work
[5] = systemically administered, Hirao et al. 2008, cited from earlier work

human delta receptor, sequence (P41143 whole entry): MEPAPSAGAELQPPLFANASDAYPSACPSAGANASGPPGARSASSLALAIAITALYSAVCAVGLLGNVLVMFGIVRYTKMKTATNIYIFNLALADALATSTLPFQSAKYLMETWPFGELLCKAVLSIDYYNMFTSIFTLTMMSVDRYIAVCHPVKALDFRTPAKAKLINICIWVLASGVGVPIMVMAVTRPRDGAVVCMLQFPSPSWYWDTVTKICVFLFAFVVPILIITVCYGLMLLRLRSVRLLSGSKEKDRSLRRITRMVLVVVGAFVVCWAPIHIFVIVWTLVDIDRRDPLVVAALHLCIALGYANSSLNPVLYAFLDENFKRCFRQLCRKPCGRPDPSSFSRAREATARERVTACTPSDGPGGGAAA

| Compound | lameness, last two days of the late phase ([1]; intrathecal 15 μg, vs saline) | lameness (% RL-% RR), early and late phase [1] | lameness, early phase ([1]; intrathecal 1 μg, Days 2-4, vs saline) | lameness, late phase, dose-response ([1]; intrathecal 0.1, 1 or 10 μg, Days 22-24) | lameness, late phase, 1 and 10 μg ([1]; intrathecal 1 and 10 μg, Days 22-24, vs saline) | tail-flick latency [2] | locomotor activity (total distance travelled), early phase ([3]; intrathecal 1 μg, vs intrathecal vehicle) | locomotor activity (total distance travelled), late phase ([3]; intrathecal 0.1, 1 or 10 μg, 0.1 and 10 μg reached statistical significance vs vehicle) | activation of the human delta receptor [4] | anxiolytic effects [5] | inhibition of memory or motor function [5] | sedative side effects ([5]; appear only at much higher doses than the effective anxiolytic dose range) |
| --- | --- | --- | --- | --- | --- | --- | --- | --- | --- | --- | --- | --- |
| CN1CC[C@]23c4c5ccc(O)c4O[C@H]2[C@@H](O)C=C[C@H]3[C@H]1C5.O=S(=O)(O)O [morphine sulfate, reference compound] | statistical significance was not quite achieved | significantly reduced lameness levels | – | – | – | – | – | – | – | – | – | – |
| CC1(N2CCC(n3c([C@@H]4CCCNC4)nc4ccccc43)CC2)CCCCCCC1 [MCOPPB, 1-[1-(1-methylcyclooctyl)-4-piperidinyl]-2-[(3R)-3-piperidinyl]-1H-benzimidazole] | – | significantly reduced lameness levels | sufficient to reduce lameness significantly | dose-related effects | significantly reduced lameness | significantly, and dose-dependently, increased TF latencies | did not change locomotor activity | appeared to restore locomotor activity to the level displayed by both treatment groups during the early phase | only a small amount | potent anxiolytic effects | no inhibition of memory or motor function | only slight sedative side effects |
